≈ marks a conversion by molar mass, not a printed value. Where two headings read alike, the source gives them in different places. Each block holds one compound with its values, some of them ahead of it. Starred links: 1 amine or outer side, 2 acyl side, 3 side chain; linkers in the order of their positions; H or OH if unused. Positions of bridges follow the written chain, without caps; N, C: chain ends. Non-standard residues stand in square brackets, D forms with d. Residues, ends and D or L forms follow the SMILES beside them. Chains are numbered I, II in the order given. Actinocin(9to1) = Cc1c2oc3c(C)ccc(C(=O)[*:1])c3nc-2c(C(=O)[*:2])c(N)c1=O; NMeV = CN[C@H](C(=O)O)C(C)C; Sar = CNCC(=O)O
What was measured:
[1] = biological target: T1, mushroom tyrosinase (Agaricus bisporus, UniProt C7FF04); assay: Diphenolase tyrosinase assay (enzymatic rate, L-dopa as substrate); format: biochemical; settings: for Tyrosinase activity at 200 µg/mL (fold increase): rate over 30 min at 37 °C versus vehicle control; for Tyrosinase stimulation, fold increase: enzyme rate of the sample divided by enzyme rate of the vehicle control
T1 construct: purchased Sigma-Aldrich Co. LLC, St. Louis, MO, USA

[2] = biological target: T1, mushroom tyrosinase; assay: Tyrosinase enzyme kinetics: change in L-dopa kinetics, type of inhibition; format: biochemical; settings: for VMAX, Michaelis-Menten plot data of the inhibitors (Figure S 3): L-dopa with inhibitor; for Change in L-dopa kinetics, Vmax: maximum enzyme velocity; for Type of inhibition: enzyme kinetic studies
[3] = tested on: human melanoma cells (UCT-Mel1); assay: Antiproliferative assay (Presto blue, 72 h); format: cell-based; settings: for IC50 / EC50: Homo sapiens; for EC50 / HillSlope, sigmoidal dose-response best-fit (Table S 10) / LogEC50, sigmoidal dose-response best-fit (Table S 10): variable slope; for EC50: bottom 0, top 100, read-out: EC50, sigmoidal dose-response best-fit (Table S 10)
[4] = biological target: T2, tyrosinase (Agaricus bisporus, UniProt C7FF04); assay: Tyrosinase enzyme kinetics in the absence of the substrate (subversive substrate properties); format: biochemical, mushroom; settings: for Vmax (substrate properties): Table 3
T2 construct: purchased Sigma-Aldrich Co. LLC, St. Louis, MO, USA

[5] = tested on: human melanocytes (UCT-Mel-1); assay: Masson Fontana assay (melanin produced); format: cell-based; settings: for Increase in melanin produced: 265 µM (aspalathin 119.82 µg/mL, catechin 76.92 µg/mL); for Mean Diff., Negative vs sample, melanin produced (Table S 11): Dunnett's multiple comparison versus untreated melanocytes
Description: The cells were cultured as previously described. The silver nitrate solution was prepared, as described by Kwon-Chung et al.[34]. The cells were fixed and treated with the AgNO3 working solution for 40 min at 56 °C (in the dark). Following incubation, the cells were treated with sodium thiosulphate (52.63 mg/mL) for 1 min and rinsed with water. The cells were counterstained using haematoxylin. The washed cells were dehydrated and fixed on microscope slides. Light microscopy images were taken using a Zeiss Primo Vert light microscope and analysed with ImageJ[34].

[6] = biological target: tyrosinase; settings: cited from earlier work; for IC50: read-out: Antityrosinase IC50, previously reported
[7] = Tyrosinase stimulation EC50 ± SD, relative EC50, 50% of maximal response
[8] = Tyrosinase stimulation EC50 ± SD, relative EC50, value in brackets
[9] = compound as substrate, absence of L-dopa
[10] = value in brackets, read-out: Antiproliferative IC50 (converted)

T1 sequence (C7FF04 1-392 limits assumed): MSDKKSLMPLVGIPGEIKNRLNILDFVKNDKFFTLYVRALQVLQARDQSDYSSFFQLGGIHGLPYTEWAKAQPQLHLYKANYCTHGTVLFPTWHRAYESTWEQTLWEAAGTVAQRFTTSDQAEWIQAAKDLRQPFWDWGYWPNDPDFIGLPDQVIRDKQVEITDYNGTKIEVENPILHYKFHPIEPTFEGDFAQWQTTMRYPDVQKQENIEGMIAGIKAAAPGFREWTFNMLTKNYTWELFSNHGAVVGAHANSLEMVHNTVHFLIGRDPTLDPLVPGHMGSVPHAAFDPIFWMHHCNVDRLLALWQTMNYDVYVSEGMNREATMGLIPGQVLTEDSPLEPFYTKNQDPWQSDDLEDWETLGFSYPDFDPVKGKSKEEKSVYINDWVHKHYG
T2 sequence (C7FF04 1-392 limits assumed): as above

Compound: O=C(O)c1ccc(O)cc1 [4-Hydroxybenzoic acid (6), 4-hydroxy benzoic acid]
IC50 [1]: 1868 ± 9.34 µM | VMAX, Michaelis-Menten plot data of the inhibitors (Figure S 3) [2]: 35.00 ± 1.84 µmol/min | Change in L-dopa kinetics, Vmax [2]: 35.00 ± 1.84 µM/min

Compound: Cc1c2oc3c(C)ccc(C(=O)N[C@@H]4C(=O)N[C@H](C(C)C)C(=O)N5CCC[C@H]5C(=O)N(C)CC(=O)N(C)[C@@H](C(C)C)C(=O)O[C@@H]4C)c3nc-2c(C(=O)N[C@@H]2C(=O)N[C@H](C(C)C)C(=O)N3CCC[C@H]3C(=O)N(C)CC(=O)N(C)[C@@H](C(C)C)C(=O)O[C@@H]2C)c(N)c1=O [Actinomycin D, reference compound] (I: T[dV]P[Sar][NMeV] / II: T[dV]P[Sar][NMeV]; ester I:1-I:C, II:1-II:C; linker I:N-II:N via Actinocin(9to1))
IC50 ([3]; 72 h, read-out: Antiproliferative IC50 ± standard deviation): 0.039 ± 0.002 µg/mL

Compound: O=C(CCc1ccc(O)c(O)c1)c1c(O)cc(O)c(C2OC(CO)C(O)C(O)C2O)c1O (stereo not drawn) [Aspalathin (1), aspalathin]
Tyrosinase activity at 200 µg/mL (fold increase) [1]: 1.11 fold increase | EC50 [1, 7]: 265 µM | EC50 [1, 8]: 265 µM | Tyrosinase stimulation, fold increase [1]: 1.10 fold | Change in L-dopa kinetics, Vmax [2]: 68.73 ± 3.47 µM/min | Substrate catalytic efficiency, times lower than native substrate [4]: 3–4 times | Vmax (substrate properties) [4, 9]: 68.7 (± 3.5) mOD/min | IC50 ([3]; 72 h, concentration where 50% of the cells are viable, 72 h, read-out: Antiproliferative IC50 ± standard deviation): > 200 µg/mL | IC50 [3, 10]: 482 µM | EC50 [3]: 218 µg/mL (≈ 481 µM) | Antiproliferative IC50 ± standard deviation ([3]; concentration where 50% of the cells are viable, 72 h): 217.75 ± 1.23 µg/mL | HillSlope, sigmoidal dose-response best-fit (Table S 10) [3]: -5.86 | LogEC50, sigmoidal dose-response best-fit (Table S 10) [3]: 2.34 | Increase in melanin produced ([5]; listed as Aspalathin): approximately 4.5% | Increase in melanin produced ([5]; listed as aspalathin): 4.5% | Mean Diff., Negative vs sample, melanin produced (Table S 11) [5]: -8.382

Compound: O=C(O)/C=C/c1ccc(O)c(O)c1 [Caffeic acid (2), caffeic acid]
EC50 [1, 7]: 228 µM | EC50 [1, 8]: 228 µM | Vmax (substrate properties) [4, 9]: 120.9 (± 15.5) mOD/min

Tyrosinase activity at 200 µg/mL (fold increase) [1]: 0.41 fold increase | Tyrosinase stimulation, fold increase [1]: 0.40 fold | Tyrosinase stimulation, fold increase ([1]; listed as catechin (3)): 0.4 fold | EC50 ([1]; relative EC50, 50% of maximal response, read-out: Tyrosinase stimulation EC50 ± SD (converted)): 494 µM | EC50 ([1]; relative EC50, value in brackets, read-out: Tyrosinase stimulation EC50 ± SD (converted)): 494 µM | Change in L-dopa kinetics, Vmax [2]: 382.40 ± 7.03 µM/min | Substrate catalytic efficiency, times higher than native substrate L-dopa [4]: 4 times | VMAX, subversive substrates (Figure S 5) ([4]; absence of the substrate L-dopa): 382.4 ± 7.03 µmol/min | Vmax (absence of the substrate) ([4]; compound as substrate): 382.4 ± 7.0 µM/min | kcat (catalytic constant) ([4]; compound as substrate): 229.7 s⁻¹ | Km [4, 9]: 471 µM | Vmax (substrate properties) [4, 9]: 382.4 (± 7.0) mOD/min | IC50 ([3]; concentration where 50% of the cells are viable, 72 h, read-out: Antiproliferative IC50 ± standard deviation): 166.3 ± 1.14 µg/mL | IC50 [3, 10]: 573 µM | EC50 [3]: 166 µg/mL (≈ 573 µM)
Compound: Oc1cc(O)c2c(c1)O[C@H](c1ccc(O)c(O)c1)[C@@H](O)C2 [Catechin (3), (+)-catechin]
HillSlope, sigmoidal dose-response best-fit (Table S 10) [3]: -3.06 | LogEC50, sigmoidal dose-response best-fit (Table S 10) [3]: 2.22 | Masson Fontana % increase in melanin produced ([5]; 100 µg/mL, versus untreated cells): 5.72% | Increase in melanin produced ([5]; listed as catechin): 4.5% | Increase in melanin produced ([5]; listed as catechin (3)): approximately 4.5% | Mean Diff., Negative vs sample, melanin produced (Table S 11) [5]: -15.08

Compound: O=C(O)/C=C/c1ccccc1 [Cinnamic acid (4), cinnamic acid]
IC50 [1]: 943.6 ± 8.1 µM | Tyrosinase inhibitory activity in words [1]: Moderate inhibitory activity | VMAX, Michaelis-Menten plot data of the inhibitors (Figure S 3) [2]: 16.82 ± 0.37 µmol/min | Type of inhibition [2]: competitive inhibition | Change in L-dopa kinetics, Vmax [2]: 16.82 ± 0.37 µM/min

Compound: COc1cc(/C=C/C(=O)O)ccc1O [Ferulic acid (5), ferulic acid]
IC50 [1]: > 1500 µM

Compound: O=c1c(O[C@@H]2O[C@H](CO)[C@@H](O)[C@H](O)[C@H]2O)c(-c2ccc(O)c(O)c2)oc2cc(O)cc(O)c12 [Isoquercitrin (7), isoquercitrin]
IC50 [1]: > 646 µM | Type of inhibition [2]: competitive inhibition

Change in L-dopa kinetics, Vmax [2]: 22.82 ± 1.07 µM/min | Vmax (substrate properties) [4, 9]: 22.8 (± 1.1) mOD/min
Compound: N[C@@H](Cc1ccc(O)c(O)c1)C(=O)O [L-dopa, reference compound]

Compound: O=C(/C=C/c1ccc(O)c(O)c1)O[C@H](Cc1ccc(O)c(O)c1)C(=O)O [Rosmarinic acid (12), rosmarinic acid]
IC50 [1]: 7.33 ± 3.33 µM | VMAX, Michaelis-Menten plot data of the inhibitors (Figure S 3) [2]: 19.72 ± 1.01 µmol/min | Type of inhibition [2]: competitive inhibition | IC50 [6]: 4 µM

Compound: COc1cc(C(=O)O)cc(OC)c1O [Syringic acid (13), syringic acid]
IC50 [1]: > 1510 µM

Compound: O=c1cc(-c2ccc(O)cc2)oc2c([C@@H]3O[C@H](CO)[C@@H](O)[C@H](O)[C@H]3O)c(O)cc(O)c12 [Vitexin (15), vitexin]
IC50 [1]: > 694 µM

Compound: Oc1ccc(O)cc1 [hydroquinone]
IC50 [6]: 19.8 ± 1.05 µM

Tyrosinase inhibitory activity in words [1]: Moderate inhibitory activity | IC50 ([1]; read-out: Tyrosinase inhibition IC50 ± SD): 534.9 ± 5.09 µM | VMAX, Michaelis-Menten plot data of the inhibitors (Figure S 3) [2]: 20.56 ± 1.72 µmol/min | Type of inhibition [2]: non-competitive inhibition
Compound: CCCOC(=O)c1cc(O)c(O)c(O)c1 [n-Propyl gallate (10), n-propyl gallate]

Compound: O=C(O)/C=C/c1ccc(O)cc1 [p-Coumaric acid (9), p-coumaric acid]
IC50 [1]: 153 ± 7.01 µM | Tyrosinase inhibitory activity in words [1]: Moderate inhibitory activity | VMAX, Michaelis-Menten plot data of the inhibitors (Figure S 3) [2]: 17.71 ± 0.66 µmol/min | Type of inhibition [2]: competitive inhibition | Change in L-dopa kinetics, Vmax [2]: 17.71 ± 0.66 µM/min

Compound: Oc1ccc(/C=C/c2cc(O)cc(O)c2)cc1 [resveratrol]
Type of tyrosinase inhibition, well-known inhibitors [6]: non-competitive | IC50 [6]: 27.7 ± 1.15 µM

From article PMC8007633, “The effect of Aspalathus linearis (Burm.f.) R.Dahlgren and its compounds on tyrosinase and melanogenesis” (Scientific Reports, 2021)
